Results reported in the NIST ThermoML archive (doi:10.1016/j.jct.2006.09.008).
± gives the expanded uncertainty stated by the source.

Assay: molar heat capacity at constant pressure; mn = molality of the nth substance listed, in mol/kg
Settings: 350 kPa, Liquid

O=[N+]([O-])[O-].O=[N+]([O-])[O-].[Mg+2] [magnesium nitrate] + O
molar heat capacity at constant pressure [J/K/mol]
Settings | m1 = 0.0228 | m1 = 0.0567 | m1 = 0.1086 | m1 = 0.2145 | m1 = 0.3197 | m1 = 0.4749 | m1 = 0.6211 | m1 = 0.811 | m1 = 1.014
278.15 K | 75.58 ± 0.3 | 75.4 ± 0.3 | 75.14 ± 0.3 | 74.65 ± 0.3 | 74.24 ± 0.3 | 73.72 ± 0.29 | 73.31 ± 0.29 | 72.9 ± 0.29 | 72.59 ± 0.29
283.15 K | 75.43 ± 0.3 | 75.26 ± 0.3 | 75.04 ± 0.3 | 74.61 ± 0.3 | 74.25 ± 0.3 | 73.79 ± 0.29 | 73.43 ± 0.29 | 73.07 ± 0.29 | 72.79 ± 0.29
288.15 K | 75.33 ± 0.3 | 75.17 ± 0.3 | 74.98 ± 0.3 | 74.6 ± 0.3 | 74.28 ± 0.3 | 73.86 ± 0.3 | 73.54 ± 0.29 | 73.22 ± 0.29 | 72.97 ± 0.29
293.15 K | 75.26 ± 0.3 | 75.12 ± 0.3 | 74.94 ± 0.3 | 74.6 ± 0.3 | 74.31 ± 0.3 | 73.94 ± 0.3 | 73.65 ± 0.29 | 73.35 ± 0.29 | 73.12 ± 0.29
298.15 K | 75.22 ± 0.3 | 75.09 ± 0.3 | 74.92 ± 0.3 | 74.62 ± 0.3 | 74.35 ± 0.3 | 74.01 ± 0.3 | 73.74 ± 0.3 | 73.47 ± 0.29 | 73.26 ± 0.29
303.15 K | 75.19 ± 0.3 | 75.07 ± 0.3 | 74.92 ± 0.3 | 74.64 ± 0.3 | 74.39 ± 0.3 | 74.07 ± 0.3 | 73.83 ± 0.3 | 73.58 ± 0.29 | 73.38 ± 0.29
308.15 K | 75.18 ± 0.3 | 75.07 ± 0.3 | 74.92 ± 0.3 | 74.66 ± 0.3 | 74.43 ± 0.3 | 74.13 ± 0.3 | 73.91 ± 0.3 | 73.67 ± 0.29 | 73.48 ± 0.29
313.15 K | 75.18 ± 0.3 | 75.07 ± 0.3 | 74.94 ± 0.3 | 74.69 ± 0.3 | 74.47 ± 0.3 | 74.19 ± 0.3 | 73.98 ± 0.3 | 73.75 ± 0.29 | 73.58 ± 0.3
318.15 K | 75.2 ± 0.3 | 75.09 ± 0.3 | 74.96 ± 0.3 | 74.72 ± 0.3 | 74.52 ± 0.3 | 74.25 ± 0.3 | 74.04 ± 0.3 | 73.83 ± 0.29 | 73.66 ± 0.3
323.15 K | 75.22 ± 0.3 | 75.12 ± 0.3 | 74.99 ± 0.3 | 74.76 ± 0.3 | 74.56 ± 0.3 | 74.3 ± 0.3 | 74.11 ± 0.3 | 73.9 ± 0.3 | 73.74 ± 0.3
328.15 K | 75.25 ± 0.3 | 75.15 ± 0.3 | 75.03 ± 0.3 | 74.81 ± 0.3 | 74.61 ± 0.3 | 74.36 ± 0.3 | 74.17 ± 0.3 | 73.97 ± 0.3 | 73.82 ± 0.3
333.15 K | 75.29 ± 0.3 | 75.19 ± 0.3 | 75.07 ± 0.3 | 74.85 ± 0.3 | 74.66 ± 0.3 | 74.42 ± 0.3 | 74.23 ± 0.3 | 74.03 ± 0.3 | 73.89 ± 0.3
